Source: patent US10512667B2, “Compositions and methods for treating conditions related to adrenocortical activity and/or excessive steroid production” (The Regents of the University of Michigan, priority 2017, dated 2019)

What was measured:
CYP17A1 = assay: Transcript measurement by qPCR in H295R cells; format: cell-based; conditions: H295R cells cultured with ATR-101
Method: (§1) mRNA was isolated (Qiagen), and was reverse transcribed using the Transcriptor First Strand cDNA synthesis kit (Roche). The relative amounts of cDNAs corresponding to the indicated transcripts were quantified using qPCR assays with specific primers (Table 2).
(§2) H295R cells were seeded in 6-well tissue culture plates (Corning #3506) at a density of 5 X105 per well. After 48 h, the compound(s) indicated were added, and the cells were cultured for the indicated time. The cells were harvested in 1.35 ml culture medium with trypsin. The cells were collected by centrifugation and lysed in 350 μl of RLT buffer (Qiagen) with β-mercaptoethanol. mRNA extraction and DNase treatment were performed according to the manufacturer's protocol (Qiagen). All RNA samples had 260/280 ratios greater than 1.5. The same amount of RNA ranging from 0.1 to 0.5 μg was used for reverse transcription using the Roche Transcriptor First Strand cDNA synthesis kit (Roche #04897030001) using the manufacturer's protocol. SYBR Green I-based real-time qPCR assays were performed using a Roche LightCycler480 instrument. The levels of transcripts in different samples were normalized by the levels of RPL9 transcripts.

IDOL = assay: Transcript measurement by qPCR in H295R cells; format: cell-based; conditions: within an hour after addition
Method: as §1, §2

ABCG1 = assay: Transcript measurement by qPCR in H295R cells; format: cell-based
Method: as §1, §2

HSD3B2 = assay: Transcript measurement by qPCR in H295R cells; format: cell-based; conditions: H295R cells cultured with ATR-101
Method: as §1, §2

ABCA1 = assay: Transcript measurement by qPCR in H295R cells; format: cell-based
Method: as §1, §2

CHOP = assay: Transcript measurement by qPCR in H295R cells; format: cell-based; conditions: 4 h
Method: as §1, §2

SULT2A1 = assay: Transcript measurement by qPCR in H295R cells; format: cell-based; conditions: H295R cells cultured with ATR-101
Method: as §1, §2

H295R cells [1] = assay: Cholesterol efflux into serum-free medium with apoA1; format: cell-based; conditions: serum-free medium containing apoA-I, 4 h
Method: Cholesterol efflux was measured by replacing the culture medium with serum-free medium supplemented with 5 μg/ml apoA1 (Sigma) and the indicated compounds. After the indicated time, the serum-free medium was collected, and the cholesterol concentration was measured using the fluorometric enzyme-linked assay (Cayman Chemical).
After 48 h, the medium was removed and replaced with 50 μl serum-free medium supplemented with 5 μg/mL apoA1. After the indicated time, the supernatant containing the effluxed cholesterol, was transferred to a new 96-well plate. A cholesterol detection reagent (Cayman Chemical) consisting of cholesterol assay buffer, cholesterol assay detector (10-acetyl-3,7-dihydroxyphenoxazine [ADHP]), horseradish peroxidase, cholesterol oxidase, and cholesterol esterase was added, and the reactions were incubated for 30 min at 37 C. The fluorescence intensities were measured using ex. […] 590 nm. The cholesterol concentrations were calculated by interpolation between the values produced by cholesterol standards that were analyzed in parallel.

ACAT = conditions: cited from earlier work
H295R cells [2] = assay: Resazurin reducing potential; format: cell-based; conditions: 32 μM ATR-101
Method: FIG. 4F: […] The cells were cultured with DMSO vehicle or 32 μM ATR-101 alone, or together with 2 mM MβCD. Resazurin fluorescence intensity was measured using a microplate reader at the indicated times at 37 C. The background signal of wells without resazurin was subtracted. […] DMSO control, *P<0.05).

[3] = test system: guinea pig adrenal glands; conditions: cited from earlier work
H295R cells [4] = assay: Cellular ATP level (CellTiter-Glo);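 note: ATP quantified by luminescence after lysing the cells in CellTiter-Glo reagent, with compound exposure at 37 °C under 5% CO2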
Method: The ATP levels of cells were measured by lysis in CellTiter-Glo reagent (Promega), and measurement of the luminescence.
After 48 h, 20-80 μl of medium was removed from each well and replaced with 20 μl of each compound diluted to 6× of the final concentration in the culture medium to produce a final volume of 120 μl. The cells were incubated at 37 C in 5% CO2 atmosphere for a time ranging from 15 min to 24 h. The medium was removed and immediately replaced with 50 μl of CellTiter-Glo luminescence cell viability assay reagent (Promega). The cells were lysed by agitation at room temperature for 20 min in the dark. The luminescence was measured using a SpectraMax M5 microplate reader (Molecular Devices) with a 0.5 s acquisition time. The luminescence (RLU) values for control cells ranged from 5000 to 20000 RLU in all experiments, and were scaled by a factor of 0.001 to plot all graphs.

H295R cells [5] = assay: Cortisol secretion (indirect ELISA); format: cell-based
Method: Cortisol secretion was measured by replacing the culture medium with fresh medium containing the indicated compounds. The medium was collected at the indicated times. The cortisol concentration in the medium was measured using indirect ELISA (Arbor Assays).
After 48 h, the medium was removed and replaced with 50 μl of fresh medium. After the indicated incubation time, aliquots of the supernatant ranging from 0.5 to 10 μl were diluted in 50 μl of medium were used to measure the amount of cortisol secreted. Cortisol detection and quantification were performed by indirect ELISA according to the manufacturer's protocol (Arbor Assays #K003).

## CC(C)c1cccc(C(C)C)c1NC(=O)NCC1(c2ccc(N(C)C)cc2)CCCC1.Cl [ATR-101, N-(2,6-bis(1-methylethyl)phenyl)-N′-((1-(4-(dimethylamino)phenyl)cyclopentyl)methyl)urea hydrochloride]
CYP17A1
  CYP17A1 transcript level: reduced
IDOL
  IDOL transcript level: reduced
ABCG1; 4 h
  ABCG1 transcript level: inhibited
ABCG1; within an hour after addition
  ABCG1 transcript level: reduced
HSD3B2
  HSD3B2 transcript level: reduced
ABCA1; 4 h
  ABCA1 transcript level: inhibited
ABCA1; within an hour after addition
  ABCA1 transcript level: reduced
CHOP
  CHOP transcript level: activated
SULT2A1
  SULT2A1 transcript level: reduced
H295R cells [1]
  cholesterol efflux, compound alone: inhibited cholesterol efflux
ACAT
  ACAT activity: inhibit ACAT activity
H295R cells [2]
  resazurin fluorescence: sustained increase in resazurin fluorescence
[3]; after 24 hours
  increase of the cholesterol level of adrenal glands: 3 fold
[3]; after ATR-101 administration
  onset of rise of the cholesterol level of adrenal glands: rises within an hour
H295R cells [4]; ACC-derived cells, 4 h
  concentration required for ATP depletion and caspase activation relative to the concentration that inhibited cholesterol esterification: more than two orders of magnitude higher
H295R cells [4]; H295R cells, 100 μM ATR-101
  time after ATR-101 addition at which ATP depletion was detected: 30 min
H295R cells [4]; H295R cells, ATR-101 and rhodamine-123 in combination, 4 h
  fold lower concentration that reduced the ATP level in combination than required separately: 10 fold
H295R cells [4]; H295R cells, serum-containing medium, 4 h
  ATP level, compound alone: reduced the ATP level
H295R cells [4]; H295R cells, serum-containing medium, 24 h
  ATP level, compound alone: reduced the ATP levels
H295R cells [4]; H295R cells, serum-free medium, 4 h
  ATP level, compound alone: caused ATP depletion
H295R cells [5]; 100 μM ATR-101, with or without 100 μM forskolin
  basal and forskolin-stimulated cortisol secretion: blocked both basal and forskolin-stimulated cortisol secretion
H295R cells [5]; cortisol in medium, 4 h or time course, hydrochloride
  cortisol secretion, compound alone: inhibited cortisol secretion
